# “Also recorded” adds a separate entry of the source.
# Key:
# IKKβ-NEMO interaction = assay: Immunoprecipitation of NEMO and IKKβ immunoblot in Raw 264.7 macrophages and HEK293 cells; type: cell-based; conditions: Raw 264.7 macrophages / HEK293; mimetics 100 μM, 8K-NBD 400 μM
# Experimental: The NBD mimetics reduce the interaction between IKKg (NEMO) and IKKß. The indicated concentrations of the drugs were added to HEK 293 or Raw 264.7 cells and cell extracts prepared 30 minutes later. Following immunoprecipitation (IP) of NEMO, the Western was probed for IKKß.
# After treatment with the mimetics or NBD peptide, NEMO was immunoprecipitated by an anti-NEMO antibody and IKKβ was immunoblotted to determine the binding of IKKβ to NEMO.
# HEK293 or Raw264.7 cells were seeded at 1×10^6 cells/well in 6-well plates and treated with vehicle, small molecule or NBD peptide for indicated time. Cells were lysed in NP-40 lysis buffer supplemented with 1× protease inhibitor cocktails (sigma). Protein was immunoprecipitated by incubating 150 μg of lysate with 1 μg of anti-NEMO antibody (Santa Cruz) on a rotating shaker at 4° C. for 4 hrs, followed by incubation with 20 ul of Protein A agarose beads (ThermoFisher) for 1 hr. Beads were washed in NP40 buffer 3 times and PBS once. Protein was then denatured in SDS-sample buffer and resolved by MINI-PROTEAN TGX 4-15% SDS-PAGE. Anti-IKKβ (1:1000 CST) was used to assess binding of IKKβ to NEMO and anti-NEMO (1:1000 CST) or IgG were used to as a loading control.
# [1] = Pharmacokinetics study after ip injection; type: in vivo; conditions: mice, 10 mg/kg ip, 2 hr
# Experimental: To determine the stability of the NBD mimetics in vivo, the pharmacokinetics of the compounds was determined in serum following ip injection.
# The pharmacokinetic profiles of the NBD mimetics were determined in male C57BL/6J mice (n=3). The drugs were formulated in 10:10:80 of DMSO:Tween 80:water and were dosed by intraperitoneal injection at a final dose of 10 mg/kg. Blood, brain, muscle, spleen, and liver were collected 2 hr post-treatment and were analyzed by mass spectrometry by following the protocol described in ref. 215 (42).
# NF-κB target genes = assay: LPS-induced systemic endotoxemia / acute lung inflammation, qRT-PCR of NF-κB target genes; type: in vivo, mice; conditions: 10 mg/kg
# Experimental: SR12343 and SR12460 initially were tested in an acute model of LPS-induced systemic endotoxemia to determine their NF-κB inhibitory effects in vivo. C57BL/6J mice were pretreated with vehicle control, 8K-NBD peptide or NBD mimetics at 10 mg/kg for 30 min, followed by LPS induction at 10 mg/kg. Lung and liver were harvested 2-4 hr post-treatment for qRT-PCR analysis of NF-κB target genes.
# LPS (strain O111:B4) was prepared in PBS at a sub-lethal dose of 10 mg/kg. 8-10 weeks old female WT mice (20-30 g) were dosed i.p. with vehicle, NBD peptide (10 mg/kg) or small molecules (10 mg/kg) for 30 min and followed by i.p. injection of saline (1 ml/kg) or LPS (10 mg/kg). Mice were euthanized 2-4 hr post-treatment and lung was collected for further analysis.
# Snap frozen tissues were preserved in RNAlater RNA stabilization solution (ThermoFisher) before processed. Total RNA was extracted from cells or tissues using TRIZOL reagent (Life Technologies) and 1500 ng of messenger RNA (mRNA) was subjected to synthesize complementary DNA (cDNA) using SuperScript VILO cDNA synthesis kit. qRT-PCR was performed in a StepOnePlus Real-Time PCR system using Platinum SYBR Green qPCR SuperMix-UDG (ThermoFisher). Target gene expression was calculated using the comparative CT method (ΔΔCT) and normalized to an internal control gene Actb (β-actin). Primers used are as follows: Ptgs2 (COX-2) forward: […]; Ptgs2 (COX-2) reverse: […]; Nfkbia (IκBα) forward: […]; Nfkbia (IκBα) reverse: […]; Il1b (IL-1β) forward: […]; Il1b (IL-1β) reverse: […]; Nos2 (iNOS) forward: […]; Nos2 (iNOS) reverse: […]; Tnf (TNF) forward: […]; Tnf (TNF) reverse: […]; Il6 (IL-6) forward: […]; Il6 (IL-6) reverse: […]. Actb (β-actin) forward: […]; Actb (β-actin) reverse: […];
# mdx mice = assay: Chronic treatment of mdx mice (Duchenne muscular dystrophy model); type: in vivo, mouse; conditions: for tibialis anterior muscle pathology (H&E): SR compounds 30 mg/kg, 8K-NBD 10 mg/kg
# Excerpt: Mdx mice develop normally at birth, and then undergo a massive myonecrosis starting at three weeks. Treatment of mdx mice with IKK/NF-kB inhibitors effectively reduces inflammation, block necrosis and increase muscle regeneration. Mdx mice were chronically treated with vehicle, SR12343, SR12460 or 8K-NBD starting from day 21, 3 times/week for 4 weeks. […] To determine if SR12343 and SR12460 improve muscle pathology, tibialis anterior (TA) muscle was stained with hematoxylin and eosin (H&E) to assess inflammatory infiltration, necrosis, central nucleation and fibrosis. […] Fiber size in centrally nucleated and non-centrally nucleated myofibers was also smaller in mice treated with SR12343 and 8K-NBD, indicating active reconstruction of myofiber during the regenerative phase.
# To determine muscle strength post-treatment, grip strength test on forelimbs was performed 2 weeks and 4 weeks post-treatment.
# HEK293 cells were grown in Dulbecco's Modification of Eagles Medium (with 4.5 g/L glucose and L-glutamine), supplemented with 10% fetal bovine serum, penicillin and streptomycin. Raw264.7 cells were cultured in RPMI-1640 media containing 10% heat-inactivated fetal bovine serum, penicillin and streptomycin. C57BL/10ScSn-Dmd^mdx/J and female C57BL/6 mice were purchased from the Jackson Laboratory. Mice were housed in the animal facilities of Scripps Fla. under constant temperature and humidity. Animal protocols used in this study were approved by Scripps Fla. Institutional Animal Care and Use Committees. Three week-old sex-matched mdx mice were dosed with SR12343 (30 mg/kg), […] (30 mg/kg), 8K-NBD peptide (10 mg/kg) or vehicle by intraperitoneal (i.p.) injection 3 times per week for 4 weeks. Mice were sacrificed at 7 weeks of age by carbon dioxide inhalation and tibialis anterior was collected for histological analysis.
# Seven week-old treated or untreated mdx mice were measured for forelimb grip strength using a digital grip strength meter paired with a metal grid (Bioseb). Mice were allowed to grip the metal grid tightly and readings were obtained by gently pulling the tail backward until release. Five sequential measurements were performed and the average force was calculated.
# Tissues fixed in 10% neutral buffered formalin (NBF) overnight were imbedded in paraffin. Tissue was sectioned at […] using a microtome. H&E staining was conducted following a standard protocol (REF).
Structure (SMILES),"disruption of IKKβ-NEMO interaction (NEMO IP, IKKβ blot) (IKKβ-NEMO interaction)",stability in serum after ip injection [1],inhibition of NF-κB/IKK in liver and lung (NF-κB target genes; LPS 10 mg/kg),expression of eMyHC and Pax 7 in TA muscle (qRT-PCR) (mdx mice; ip 3 times/week for 4 weeks),tibialis anterior muscle pathology (H&E) (mdx mice; ip 3 times/week for 4 weeks),therapeutic benefit of chronic treatment of mdx mice (mdx mice; chronic treatment with the ZINC compounds),stability in serum after ip injection ([1]; 10 mg/kg),"NF-κB target gene expression in lung (iNOS, IκBα, COX2, IL-6) (NF-κB target genes; 30 min before LPS 10 mg/kg, 2-4 hr)",NF-κB target gene expression in liver (NF-κB target genes; LPS 10 mg/kg),TNF-α expression in lung (NF-κB target genes; LPS 10 mg/kg),forelimb grip strength (mdx mice; 2 weeks post-treatment),fiber size in centrally nucleated and non-centrally nucleated myofibers (mdx mice; ip 3 times/week for 4 weeks)
"O=C(CNCCc1cc(F)cc(F)c1)Nc1ccc(Cl)cn1 [SR12460, N-(5-chloropyridin-2-yl)-2-((3,5-difluorophenethyl)amino)acetamide]",disruption of the association between NEMO and IKK-β,significant stability 2 hr after injection,less potent compared to SR12343,"increased eMyHC expression, but to a lower extent compared to SR12343",partly improved muscle pathology,–,–,–,–,–,–,–
"Nc1ncccc1C(=O)OCC(=O)Nc1ccc(Cl)cc1F [NBDA-1, 2-((4-chloro-2-fluorophenyl)amino)-2-oxoethyl 2-aminonicotinate]",–,–,–,–,–,showed no therapeutic benefit,–,–,–,–,–,–
"O=C(CNc1ccc(Cl)cn1)NCCc1cccc(Br)c1 [SR12343, N-(3-bromophenethyl)-2-((5-chloropyridin-2-yl)amino)acetamide]",strongest activity; also recorded: disruption of the association between NEMO and IKK-β,–,–,increasing expression of eMyHC as well as Pax 7,most significant pathological improvement,–,moderate stability; also recorded: less stable compared to SR12460,downregulate NF-κB transcriptional activity significantly in lung,inhibiting only COX2 expression significantly,unchanged,significantly improved forelimb strength after 2 weeks of treatment,smaller

# Reference: patent publication US10758522B2, “Small molecule analogs of the nemo binding peptide” (THE SCRIPPS RESEARCH INSTITUTE, priority 2015, dated 2020)
